# Experiments:
# Flt3L-elicited DC = experiment: Foxp3 induction by DC pre-treated with SCFA or TSA for 6 h, washed, co-cultured with naïve CD4+ T cells; type: cell-based, mouse; details: DC pre-treated 6 h, then agent removed
# Method: DC were expanded in vivo by subcutaneous injection of B16 melanoma cells secreting FLT3-ligand into the left hind flank of mice as indicated. Once tumors were visible, spleens from injected animals were dissociated in RPMI 1640 medium containing 1.67 U mL-1 liberase TL (Roche) and 50 μg mL-1 DNAse I (Roche) for 20 min at 37° C. with shaking EDTA was then added at a final concentration of 5 mM to stop digestion and the resulting homogenate was processed for CD11c+ cell isolation using the MACS mouse CD11c (N418) purification kit (Miltenyi Biotec).
# In vitro Foxp3 induction assays were performed by co-culturing DC with 5.5×10^4 CD4+CD44loCD62LhiCD25-naïve T cells in the presence of 1 μg ml-1 of CD3 antibody, 1 ng mL-1 TGF-β, and 100 U ml-1 IL-2, in 96-well flat-bottom plates for 4 d. For Foxp3 induction in the presence of butyrate- or TSA-pretreated DC, TGF-β was used at 0.1 ng mL-1 final concentration. In vitro induction assays in the absence of DC were performed by incubating 5.5×10^4 naïve CD4+ T cells with 1 ng mL-1 TGF-β, 100 U ml-1 IL-2, and a 1:1 cell-to-bead ratio of CD3/CD28 T activator Dynabeads (Invitrogen). For in vitro suppression assays, 4×10^4 naïve CD4+ T cells were FACS-sorted from B6 mice and cultured with graded numbers of CD4+Foxp3+ Treg cells FACS-sorted from Foxp3GFP mice treated with antibiotics and with or without butyrate, in the presence of […] irradiated T cell-depleted splenocytes and 1 μg ml-1 CD3 antibody in a 96-well round-bottom plate for 80 h. Proliferation of T cells was assessed by [3H]-thymidine incorporation during the final 8 h of culture.
# LPS response genes = experiment: Gene expression in DC (microarray, Relb qPCR); type: cell-based, mouse; details: 6 h
# Method: FIG. 4 depicts HDAC-inhibitory activity of butyrate decreases pro-inflammatory cytokine expression within DC to promote Treg induction: A) Histone acetylation in Flt3L-elicited DC from B6 mice treated with the indicated SCFA (500 μM) or TSA (10 nM) for 6 h followed by acid extraction of histones from isolated nuclei, SDS-PAGE and blotting with antibody for pan-acetylated H3. Total histone H3 served as a loading control; B) Induction of Foxp3 expression upon stimulation of naïve CD4+ T cells by CD3 antibody in the presence of SCFA or TSA, Flt3L-elicited DC and TGF-β; C) RelB gene expression quantified by qPCR in purified Flt3L-elicited DC from B6 mice treated for 6 h with SCFA or TSA, as in (A); and D) RelB gene expression quantified by qPCR in purified Flt3L-elicited DC from B6 mice treated with or without TSA in combination with, or in the absence of, butyrate at the indicated concentrations.
# The data are shown as percent of CD4+ cells expressing Foxp3 after 4 days of culture. Data are representative of 2 independent experiments; error bars denote SEM.
# dendritic cells = experiment: Treg induction by dendritic cells treated with soluble or liposome encapsulated TSA; type: cell-based; details: DC treated 6 hrs with soluble or liposome encapsulated TSA, washed, incubated with naïve CD4+ T cells
# From the text: TSA was encapsulated in lipid particles containing mixtures of lipids for release of contents only upon entry into cells. For details see Karve et al. Langmuir 2008, 24, 5679-5688. To monitor incorporation of TSA into liposomes, lipids were dissociated with hydrogenated Triton-X and monitored for increased UV absorption compared to free TSA and ‘empty’ liposomes. >85% of free TSA is incorporated into the lipid particles.
# The ability of dendritic cells to induce Treg development in vitro after exposure to lipopsome encapsulated TSA was evaluated. Doubly bead-purified dendritic cells were treated for 6 hrs with soluble or liposome encapsulated TSA then washed and incubated with naïve CD4+ T cells. Pretreatment of DCs with TSA increased the generation of Foxp3+ cells relative to vehicle control (FIG. 11).
# T cells = details: Wang et al. 2009; Tao et al. 2007; cited from earlier work
smiles,measurement,setting,value
"CC(/C=C/C(=O)NO)=C\[C@@H](C)C(=O)c1ccc(N(C)C)cc1 [TSA, trichostatin A]",ability of pre-treated DCs to induce Foxp3 expression in naïve CD4+ T cells,Flt3L-elicited DC,potently induced
same,"expression of LPS response genes including 1112, 116, and Relb in DCs",LPS response genes,systemic repression
same,generation of Foxp3+ cells relative to vehicle control,dendritic cells,increased
same,Treg cell generation in vitro by acting on T cells,T cells,potentiates

# Source: patent publication US20160271086A1, “METHODS AND COMPOSITIONS FOR INDUCING REGULATORY T-CELL GENERATION” (SLOAN-KETTERING INSTITUTE FOR CANCER RESEARCH, priority 2013, published 2016)
